Measured values as given in PubChem BioAssay AID330 (DTP/NCI, 2004).
Several values for one entry are separate records, joined by “and”; a condition that tells them apart may be missing. Equal values may be shown once. Toxic doses and inconclusive results are not listed.

Test system: P388 leukemia ip, CD2F1 mice, survival T/C
Experiment: NCI In Vivo Anticancer Drug Screen. Data for tumor model P388 Leukemia (intraperitoneal) in CD2F1 (CDF1) mice
Settings: endpoint: median survival time, higher = longer survival
Procedure, shortened: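 Mice carrying the transplanted tumor received test compound or vehicle. Survival was recorded in each group, and the value is the treated-group measurement divided by that of the vehicle-treated control group.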

[1] = dose: 100.0 mg/kg/injection, schedule: Q04DX003 (ip), vehicle: saline
[2] = dose: 60.0 mg/kg/injection, schedule: Q01DX005 (ip), vehicle: saline with Tween-80
[3] = dose: 120.0 mg/kg/injection, schedule: Q01DX005 (ip), vehicle: saline with Tween-80
[4] = dose: 240.0 mg/kg/injection, schedule: Q01DX005 (ip), vehicle: saline with Tween-80
[5] = dose: 25.0 mg/kg/injection, schedule: Q01DX005 (ip), vehicle: Klucel (hydroxypropylcellulose) (HPC)
[6] = dose: 100.0 mg/kg/injection, schedule: Q01DX001 (ip), vehicle: Klucel (hydroxypropylcellulose) (HPC)
[7] = dose: 200.0 mg/kg/injection, schedule: Q01DX001 (ip), vehicle: Klucel (hydroxypropylcellulose) (HPC)
[8] = dose: 400.0 mg/kg/injection, schedule: Q01DX001 (ip), vehicle: Klucel (hydroxypropylcellulose) (HPC)
[9] = dose: 50.0 mg/kg/injection, schedule: Q01DX009 (ip), vehicle: saline with Tween-80
[10] = dose: 100.0 mg/kg/injection, schedule: Q01DX009 (ip), vehicle: saline with Tween-80
[11] = dose: 200.0 mg/kg/injection, schedule: Q01DX009 (ip), vehicle: saline with Tween-80
[12] = dose: 60.0 mg/kg/injection, schedule: Q01DX005 (ip), vehicle: Klucel (hydroxypropylcellulose) (HPC)
[13] = dose: 120.0 mg/kg/injection, schedule: Q01DX005 (ip), vehicle: Klucel (hydroxypropylcellulose) (HPC)
[14] = dose: 240.0 mg/kg/injection, schedule: Q01DX005 (ip), vehicle: Klucel (hydroxypropylcellulose) (HPC)
[15] = dose: 25.0 mg/kg/injection, schedule: Q01DX009 (ip), vehicle: Klucel (hydroxypropylcellulose) (HPC)
[16] = dose: 50.0 mg/kg/injection, schedule: Q01DX009 (ip), vehicle: Klucel (hydroxypropylcellulose) (HPC)
[17] = dose: 100.0 mg/kg/injection, schedule: Q01DX009 (ip), vehicle: saline
[18] = dose: 50.0 mg/kg/injection, schedule: Q01DX005 (ip), vehicle: saline with Tween-80
[19] = dose: 100.0 mg/kg/injection, schedule: Q01DX005 (ip), vehicle: saline with Tween-80
[20] = dose: 200.0 mg/kg/injection, schedule: Q01DX005 (ip), vehicle: saline with Tween-80

Q: What does the source list for CC1(C)N=C(N)N=C(N)N1c1ccc(OCc2ccc(C(=O)Nc3cccc(S(=O)(=O)F)c3)cc2)c(Cl)c1?
A: T/C (dose: 50.0 mg/kg/injection, schedule: Q04DX003 (ip), vehicle: saline): 181 % of control; T/C [1]: 86 % of control

Q: What does the source list for CN(Cc1cnc2nc(N)nc(N)c2n1)c1ccc(C(=O)NC(CCC(=O)NC(CCC(=O)O)C(=O)O)C(=O)O)cc1 (centres undefined)?
A: T/C (dose: 1.56 mg/kg/injection, schedule: Q01DX009 (ip), vehicle: Klucel (hydroxypropylcellulose) (HPC)): 184 % of control and 218 % of control; T/C (dose: 3.12 mg/kg/injection, schedule: Q01DX009 (ip), vehicle: Klucel (hydroxypropylcellulose) (HPC)): 214 % of control and 94 % of control; T/C (dose: 6.25 mg/kg/injection, schedule: Q01DX009 (ip), vehicle: Klucel (hydroxypropylcellulose) (HPC)): 88 % of control

Q: Which T/C [2] does the source give for COc1ccc2c(CC(=O)O)cc(=O)oc2c1 here?
A: 102 % of control

Q: What about the T/C [3] of the same compound?
A: 120 % of control

Q: And the T/C [4]?
A: 99 % of control

Q: CC(C)C(=O)[O][Bi]([c]1ccccc1)[c]1ccccc1 was tested. Which T/C (dose: 6.25 mg/kg/injection, schedule: Q01DX005 (ip), vehicle: Klucel (hydroxypropylcellulose) (HPC)) did it give?
A: 108 % of control and 110 % of control

Q: What about the T/C (dose: 12.5 mg/kg/injection, schedule: Q01DX005 (ip), vehicle: Klucel (hydroxypropylcellulose) (HPC)) of the same compound?
A: 101 % of control and 113 % of control

Q: What about the T/C [5] of the same compound?
A: 105 % of control and 113 % of control

Q: What does the source list for FC(F)(F)c1nn2c(-c3cnns3)nnc2s1?
A: T/C [6]: 98 % of control; T/C [7]: 99 % of control; T/C [8]: 104 % of control

Q: Which results are given for Cc1cc(N)ccc1Cl?
A: T/C (dose: 25.0 mg/kg/injection, schedule: Q01DX009 (ip), vehicle: saline with Tween-80): 97 % of control; T/C [9]: 110 % of control; T/C [10]: 93 % of control; T/C [11]: 96 % of control

Q: What does the source list for CC(=O)C1(CCC(C)(S(=O)(=O)c2ccccc2)S(=O)(=O)c2ccccc2)CCCCC1=O (centres undefined)?
A: T/C [6]: 99 % of control; T/C [7]: 100 % of control; T/C [8]: 106 % of control

Q: Which T/C [6] does the source give for COc1ccccc1-n1c(=O)c(N=Nc2ccccc2Cl)c(O)n(-c2ccccc2Cl)c1=S here?
A: 101 % of control

Q: And the T/C [7]?
A: 100 % of control

Q: And the T/C [8]?
A: 101 % of control

Q: What does the source list for CC1(N2CCCCC2)C(=O)NC(=O)N(C2CCCCC2)C1=O (centres undefined)?
A: T/C [12]: 88 % of control; T/C [13]: 95 % of control; T/C [14]: 89 % of control

Q: Which results are given for O=P1(CNc2ccccc2)CN(c2ccccc2)CN(c2ccccc2)C1?
A: T/C (dose: 12.5 mg/kg/injection, schedule: Q01DX001 (ip), vehicle: saline with Tween-80): 100 % of control; T/C (dose: 25.0 mg/kg/injection, schedule: Q01DX001 (ip), vehicle: saline with Tween-80): 100 % of control; T/C (dose: 50.0 mg/kg/injection, schedule: Q01DX001 (ip), vehicle: saline with Tween-80): 100 % of control

Q: For S=c1ssc2ccccc12, which T/C (dose: 100.0 mg/kg/injection, schedule: Q04DX003 (ip), vehicle: saline with Tween-80) is on record?
A: 100 % of control

Q: And the T/C (dose: 200.0 mg/kg/injection, schedule: Q04DX003 (ip), vehicle: saline with Tween-80)?
A: 109 % of control

Q: And the T/C (dose: 400.0 mg/kg/injection, schedule: Q04DX003 (ip), vehicle: saline with Tween-80)?
A: 109 % of control

Q: What does the source list for CC(=O)Nc1ccc2c(C)cc(Cl)nc2c1?
A: T/C [2]: 95 % of control; T/C [3]: 90 % of control; T/C [4]: 89 % of control

Q: COC1=C2CC(C)CC(OC)C(O)C(C)/C=C(\C)C(OC(N)=O)C(OC)/C=C\C=C(/C)C(=O)NC(=C(C=NC(C)(C)C)C1=O)C2=O (centres undefined) was tested. Which T/C [2] did it give?
A: 124 % of control

Q: How did the T/C [5] turn out when c1ccc2c(c1)Cc1cc3ccccc3nc1-2 was run?
A: 94 % of control

Q: And the T/C [15]?
A: 94 % of control

Q: And the T/C (dose: 50.0 mg/kg/injection, schedule: Q01DX005 (ip), vehicle: Klucel (hydroxypropylcellulose) (HPC))?
A: 100 % of control

Q: What about the T/C [16] of the same compound?
A: 91 % of control

Q: What about the T/C (dose: 100.0 mg/kg/injection, schedule: Q01DX005 (ip), vehicle: Klucel (hydroxypropylcellulose) (HPC)) of the same compound?
A: 100 % of control

Q: What about the T/C (dose: 100.0 mg/kg/injection, schedule: Q01DX009 (ip), vehicle: Klucel (hydroxypropylcellulose) (HPC)) of the same compound?
A: 106 % of control

Q: And the T/C (dose: 200.0 mg/kg/injection, schedule: Q01DX005 (ip), vehicle: Klucel (hydroxypropylcellulose) (HPC))?
A: 97 % of control

Q: And the T/C (dose: 200.0 mg/kg/injection, schedule: Q01DX009 (ip), vehicle: Klucel (hydroxypropylcellulose) (HPC))?
A: 100 % of control

Q: CCOc1cc(/C=N\Nc2nncn2N)c(C)cc1N(CCCl)CCCl was tested. Which T/C (dose: 50.0 mg/kg/injection, schedule: Q04DX003 (ip), vehicle: saline sonified) did it give?
A: 116 % of control

Q: Which results are given for N=[N+]=CC(=O)CC(N)C(=O)O (centres undefined)?
A: T/C [17]: 117 % of control; T/C [1]: 92 % of control; T/C (dose: 200.0 mg/kg/injection, schedule: Q04DX003 (ip), vehicle: saline): 100 % of control; T/C (dose: 400.0 mg/kg/injection, schedule: Q04DX003 (ip), vehicle: saline): 100 % of control

Q: How did the T/C [9] turn out when O=C1c2ccccc2C2N1CCC1CCc3ccccc3N12 (centres undefined) was run?
A: 92 % of control

Q: What about the T/C [10] of the same compound?
A: 91 % of control

Q: And the T/C [11]?
A: 89 % of control

Q: Which results are given for O=C(O)/C(=C/c1cccs1)c1ccc(F)cc1?
A: T/C [2]: 110 % of control; T/C [3]: 102 % of control; T/C [4]: 104 % of control

Q: How did the T/C (dose: 50.0 mg/kg/injection, schedule: Q01DX009 (ip), vehicle: saline) turn out when Cc1ccc(S(=O)(=O)Nc2cc(S(=O)(=O)O)c(N)c3c2C(=O)c2ccccc2C3=O)cc1 was run?
A: 86 % of control

Q: What about the T/C [17] of the same compound?
A: 97 % of control

Q: What about the T/C (dose: 200.0 mg/kg/injection, schedule: Q01DX009 (ip), vehicle: saline) of the same compound?
A: 101 % of control

Q: CCC(/C=N/N=C(N)N)=N\N=C(N)N was tested. Which T/C (dose: 50.0 mg/kg/injection, schedule: Q01DX005 (ip), vehicle: saline) did it give?
A: 110 % of control

Q: What about the T/C (dose: 100.0 mg/kg/injection, schedule: Q01DX005 (ip), vehicle: saline) of the same compound?
A: 100 % of control

Q: Which T/C [18] does the source give for O=S1(=O)NC(=NC2CCCCC2)c2ccccc21 here?
A: 105 % of control

Q: What about the T/C [19] of the same compound?
A: 105 % of control

Q: What about the T/C [20] of the same compound?
A: 99 % of control

Q: Which results are given for COC(=O)n1nnc2ncccc21?
A: T/C (dose: 60.0 mg/kg/injection, schedule: Q01DX005 (ip), vehicle: saline): 101 % of control; T/C (dose: 120.0 mg/kg/injection, schedule: Q01DX005 (ip), vehicle: saline): 100 % of control; T/C (dose: 240.0 mg/kg/injection, schedule: Q01DX005 (ip), vehicle: saline): 92 % of control

Q: How did the T/C [18] turn out when COc1ccc2c3c(cnc2c1)C(=O)CCC3 was run?
A: 104 % of control

Q: What about the T/C [19] of the same compound?
A: 101 % of control

Q: What about the T/C [20] of the same compound?
A: 96 % of control

Q: Which results are given for O=C(O)/C=C(/CC(=O)O)c1ccc(O)cc1?
A: T/C [12]: 97 % of control; T/C [13]: 102 % of control; T/C [14]: 100 % of control

Q: Which T/C [15] does the source give for O=C1CSC(COc2ccc(Cl)cc2Cl)O1 (centres undefined) here?
A: 100 % of control

Q: What about the T/C [16] of the same compound?
A: 97 % of control

Q: Which T/C (dose: 400.0 mg/kg/injection, schedule: Q01DX009 (ip), vehicle: saline with Tween-80) does the source give for NC(=O)Cc1noc2ccccc12 here?
A: 106 % of control and 88 % of control

Q: With CCOP(=O)(N=Nc1cccnc1)OCC as the compound, how does the T/C (dose: 1.56 mg/kg/injection, schedule: Q01DX009 (ip), vehicle: water) read?
A: 107 % of control

Q: And the T/C (dose: 3.12 mg/kg/injection, schedule: Q01DX009 (ip), vehicle: water)?
A: 101 % of control

Q: And the T/C (dose: 6.25 mg/kg/injection, schedule: Q01DX005 (ip), vehicle: water)?
A: 100 % of control

Q: What about the T/C (dose: 6.25 mg/kg/injection, schedule: Q01DX009 (ip), vehicle: water) of the same compound?
A: 101 % of control

Q: And the T/C (dose: 12.5 mg/kg/injection, schedule: Q01DX005 (ip), vehicle: water)?
A: 96 % of control

Q: And the T/C (dose: 12.5 mg/kg/injection, schedule: Q01DX009 (ip), vehicle: water)?
A: 112 % of control

Q: And the T/C (dose: 25.0 mg/kg/injection, schedule: Q01DX005 (ip), vehicle: water)?
A: 102 % of control

Q: And the T/C (dose: 25.0 mg/kg/injection, schedule: Q01DX009 (ip), vehicle: water)?
A: 117 % of control

Q: What about the T/C (dose: 50.0 mg/kg/injection, schedule: Q01DX005 (ip), vehicle: water) of the same compound?
A: 103 % of control

Q: What about the T/C (dose: 100.0 mg/kg/injection, schedule: Q01DX005 (ip), vehicle: water) of the same compound?
A: 103 % of control

Q: Which results are given for CCn1c(=O)oc2ccc(Br)cc21?
A: T/C (dose: 100.0 mg/kg/injection, schedule: Q04DX002 (ip), vehicle: Klucel (hydroxypropylcellulose) (HPC)): 100 % of control; T/C (dose: 200.0 mg/kg/injection, schedule: Q04DX002 (ip), vehicle: Klucel (hydroxypropylcellulose) (HPC)): 98 % of control; T/C (dose: 400.0 mg/kg/injection, schedule: Q04DX002 (ip), vehicle: Klucel (hydroxypropylcellulose) (HPC)): 104 % of control
